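Values below derive from 48-hour exposures of cells grown in 96-well plates, with endpoints linearly interpolated between the two concentrations bracketing the appropriate inhibition level. At the GI50, growth is halved.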 Calls of active or inactive are those of the source. Cut-off read from the data, not from the text of the source: active = GI50 up to about 1.1 µM and inactive = higher.
Assays:
Assay in all cases: DTP human tumour cell line panel, 48 h
[1] = test system: SNB-19
[2] = test system: HL-60
[3] = test system: NCI-H23
[4] = test system: UACC-62
[5] = test system: SW-620
[6] = test system: KM-20L2
[7] = test system: NCI-H460
[8] = test system: LXFL 529
[9] = test system: SF-268
[10] = test system: OVCAR-3
[11] = test system: HOP-62
[12] = test system: SF-295
[13] = test system: TK-10
[14] = test system: OVCAR-5
[15] = test system: A549
[16] = test system: OVCAR-8
[17] = test system: PC-3
[18] = test system: HCC 2998
[19] = test system: MDA-N
[20] = test system: T47D

Row | Structure (SMILES) | GI50 [1] | GI50 [2] | GI50 [3] | GI50 [4] | GI50 [5] | GI50 [6] | GI50 [7] | GI50 [8] | GI50 [9] | GI50 [10] | GI50 [11] | GI50 [12] | GI50 [13] | GI50 [14] | GI50 [15] | GI50 [16] | GI50 [17] | GI50 [18] | GI50 [19] | GI50 [20]
1 | O=c1[nH]cc(C(F)(C(F)(F)F)C(F)(F)F)c(=O)[nH]1 | > 100 µM (inactive) | > 100 µM (inactive) | > 100 µM (inactive) | > 100 µM (inactive) | > 100 µM (inactive) | > 100 µM (inactive) | > 100 µM (inactive) | > 100 µM (inactive) | > 100 µM (inactive) | > 100 µM (inactive) | > 100 µM (inactive) | > 100 µM (inactive) | > 100 µM (inactive) | > 100 µM (inactive) | > 100 µM (inactive) | > 100 µM (inactive) | – | – | – | –
2 | CO[C@@]12[C@H](COC(N)=O)C3=C(C(=O)C(C)=C(N)C3=O)N1C[C@H]1[C@@H]2N1C (some centres undefined) [PORFIROMYCIN] | 2.35 µM (inactive) | 0.34 µM (active) | 0.506 µM (active) | 0.466 µM (active) | 1.87 µM (inactive) | 7.98 µM (inactive) | 0.128 µM (active) | – | 3.46 µM (inactive) | 6.76 µM (inactive) | 0.291 µM (active) | 0.398 µM (active) | 16.3 µM (inactive) | 10.2 µM (inactive) | 0.489 µM (active) | 3.95 µM (inactive) | 12.6 µM (inactive) | 1.95 µM (inactive) | 12.5 µM (inactive) | 9.2 µM (inactive)
3 | CC1=C(C(=O)Nc2ccc([N+](=O)[O-])cc2)C(c2ccc3c(c2)OCO3)C(C(=O)Nc2ccc([N+](=O)[O-])cc2)=C(C)N1 | > 100 µM (inactive) | – | 5.78 µM (inactive) | 5.21 µM (inactive) | 51.9 µM (inactive) | 28 µM (inactive) | 10 µM (inactive) | 7.96 µM (inactive) | > 100 µM (inactive) | 6.43 µM (inactive) | 37.6 µM (inactive) | 8.34 µM (inactive) | – | 59.7 µM (inactive) | 24.2 µM (inactive) | 3.16 µM (inactive) | – | 7.05 µM (inactive) | – | –
4 | Cn1nc(-c2ccccc2)c(C(=O)/C=C/c2ccc(F)cc2)c(N2CCCCC2)c1=O | 13.2 µM (inactive) | 0.759 µM (active) | 4.19 µM (inactive) | 6.27 µM (inactive) | 5.06 µM (inactive) | 5.18 µM (inactive) | 4.83 µM (inactive) | 4.68 µM (inactive) | 6.35 µM (inactive) | – | – | – | 17.8 µM (inactive) | – | 5.13 µM (inactive) | 5.81 µM (inactive) | – | – | – | –
5 | O=C(O)CN(c1ccccc1)S(=O)(=O)c1ccc(NC(=O)c2ccccc2)cc1 | > 100 µM (inactive) | > 100 µM (inactive) | > 100 µM (inactive) | > 100 µM (inactive) | > 100 µM (inactive) | > 100 µM (inactive) | > 100 µM (inactive) | > 100 µM (inactive) | > 100 µM (inactive) | – | – | – | > 100 µM (inactive) | > 100 µM (inactive) | > 100 µM (inactive) | > 100 µM (inactive) | – | – | – | –
6 | COc1ccc2c3c1OC1C4(CCC5C(C2)N(CC2CC2)CCC351)OCCO4 (centres undefined) | > 100 µM (inactive) | > 100 µM (inactive) | > 100 µM (inactive) | > 100 µM (inactive) | > 100 µM (inactive) | – | > 100 µM (inactive) | – | > 100 µM (inactive) | > 100 µM (inactive) | > 100 µM (inactive) | > 100 µM (inactive) | > 100 µM (inactive) | > 100 µM (inactive) | > 100 µM (inactive) | > 100 µM (inactive) | > 100 µM (inactive) | > 100 µM (inactive) | > 100 µM (inactive) | > 100 µM (inactive)
7 | CC1C2C=CC1C(c1c3ccc(=O)c(O)c-3oc3c(O)c(O)ccc13)C2C(=O)O (centres undefined) | > 100 µM (inactive) | 44.3 µM (inactive) | 35.6 µM (inactive) | > 100 µM (inactive) | 34.3 µM (inactive) | – | > 100 µM (inactive) | – | > 100 µM (inactive) | > 100 µM (inactive) | > 100 µM (inactive) | 43.2 µM (inactive) | > 100 µM (inactive) | > 100 µM (inactive) | 35 µM (inactive) | > 100 µM (inactive) | > 100 µM (inactive) | > 100 µM (inactive) | 21.4 µM (inactive) | > 100 µM (inactive)
8 | c1cc(C2N3CCCN2CC3)ccn1 (centres undefined) | > 100 µM (inactive) | 40.2 µM (inactive) | 68.2 µM (inactive) | > 100 µM (inactive) | 41.8 µM (inactive) | – | 83.6 µM (inactive) | – | 8.38 µM (inactive) | 29.4 µM (inactive) | > 100 µM (inactive) | > 100 µM (inactive) | > 100 µM (inactive) | > 100 µM (inactive) | > 100 µM (inactive) | 53.8 µM (inactive) | > 100 µM (inactive) | > 100 µM (inactive) | 35.1 µM (inactive) | > 100 µM (inactive)
9 | c1ccc(Nc2nnc(CSc3nc(-c4ccccc4)c(-c4ccccc4)[nH]3)s2)cc1 | – | 13.2 µM (inactive) | 21.3 µM (inactive) | – | – | 26.7 µM (inactive) | 12.4 µM (inactive) | 20.1 µM (inactive) | 24.4 µM (inactive) | 10.5 µM (inactive) | 21.1 µM (inactive) | 18.6 µM (inactive) | 26.1 µM (inactive) | 21.3 µM (inactive) | 28.4 µM (inactive) | 23 µM (inactive) | – | – | – | –
10 | C[C@@H]1C(=O)CC2C(C)(C)CCC[C@]2(C)[C@@]12CC[C@]1(C=COC1)O2 (some centres undefined) | 61 µM (inactive) | 18.7 µM (inactive) | – | 35.4 µM (inactive) | 50.8 µM (inactive) | 46.7 µM (inactive) | 32.8 µM (inactive) | – | 64.7 µM (inactive) | 36.4 µM (inactive) | 50.8 µM (inactive) | 36.6 µM (inactive) | – | > 100 µM (inactive) | 36.1 µM (inactive) | 27.9 µM (inactive) | – | 38.1 µM (inactive) | – | –
11 | c1ccc2sc(C3(N4CCCCC4)CCCCCC3)cc2c1 | 20.8 µM (inactive) | 2.1 µM (inactive) | 20.5 µM (inactive) | 25.4 µM (inactive) | 12 µM (inactive) | – | 17.1 µM (inactive) | – | 25.4 µM (inactive) | 19.4 µM (inactive) | 28.8 µM (inactive) | 22.4 µM (inactive) | 25.1 µM (inactive) | 18.8 µM (inactive) | 30 µM (inactive) | 26.1 µM (inactive) | 15.5 µM (inactive) | 13.4 µM (inactive) | 34.9 µM (inactive) | 14.5 µM (inactive)
12 | CCCCc1ccc(Nc2nc(Cl)c3ccn(C4CC(Oc5ccc(C)cc5)C(COc5ccc(C)cc5)O4)c3n2)cc1 (centres undefined) | 25.9 µM (inactive) | > 46.5 µM (inactive) | 24.8 µM (inactive) | 24.5 µM (inactive) | > 46.5 µM (inactive) | – | > 31.6 µM (inactive) | – | > 100 µM (inactive) | > 100 µM (inactive) | > 100 µM (inactive) | > 46.5 µM (inactive) | 30.3 µM (inactive) | > 31.6 µM (inactive) | > 46.5 µM (inactive) | > 46.5 µM (inactive) | > 100 µM (inactive) | > 46.5 µM (inactive) | > 46.5 µM (inactive) | > 46.5 µM (inactive)
13 | O=C(N/N=C(COc1ccccc1Cl)\N=C\c1ccncc1)c1ccncc1 | > 100 µM (inactive) | > 100 µM (inactive) | > 100 µM (inactive) | > 100 µM (inactive) | > 100 µM (inactive) | – | > 100 µM (inactive) | – | > 100 µM (inactive) | > 100 µM (inactive) | > 100 µM (inactive) | > 100 µM (inactive) | > 100 µM (inactive) | > 100 µM (inactive) | > 100 µM (inactive) | > 100 µM (inactive) | > 100 µM (inactive) | > 100 µM (inactive) | > 100 µM (inactive) | > 100 µM (inactive)
14 | CCN1CCC(CNC(=O)c2ccc(N)cc2)N1CC (centres undefined) | > 100 µM (inactive) | > 100 µM (inactive) | > 100 µM (inactive) | > 100 µM (inactive) | > 100 µM (inactive) | – | > 100 µM (inactive) | – | > 100 µM (inactive) | > 100 µM (inactive) | > 100 µM (inactive) | > 100 µM (inactive) | > 100 µM (inactive) | > 100 µM (inactive) | > 100 µM (inactive) | > 100 µM (inactive) | > 100 µM (inactive) | > 100 µM (inactive) | > 100 µM (inactive) | > 100 µM (inactive)
15 | COCOC1/C=C/CCCC#C[C@H](C)C(=O)CC1 (some centres undefined) | 17.9 µM (inactive) | 2.32 µM (inactive) | 5.97 µM (inactive) | 10 µM (inactive) | 2.71 µM (inactive) | – | 8.73 µM (inactive) | – | 12.2 µM (inactive) | 6.12 µM (inactive) | 19.5 µM (inactive) | 16.3 µM (inactive) | 15.2 µM (inactive) | 7.38 µM (inactive) | 8.07 µM (inactive) | 14.5 µM (inactive) | 8.69 µM (inactive) | 14.6 µM (inactive) | 11.4 µM (inactive) | 9.04 µM (inactive)
16 | O=C(O)Cc1cccc2c1OC(c1ccccc1)C(C(=O)c1ccccc1)C2=O (centres undefined) | 45.9 µM (inactive) | 26.5 µM (inactive) | 29.5 µM (inactive) | 13.4 µM (inactive) | 37.8 µM (inactive) | – | 30.5 µM (inactive) | – | 44 µM (inactive) | > 100 µM (inactive) | > 100 µM (inactive) | 37.4 µM (inactive) | 26.5 µM (inactive) | > 100 µM (inactive) | 36.3 µM (inactive) | 46.6 µM (inactive) | > 100 µM (inactive) | 20.4 µM (inactive) | 33.8 µM (inactive) | 10.1 µM (inactive)

— ChEMBL document CHEMBL1201862, “PubChem BioAssay data set” (2004)
